Measured values taken from ChEMBL document CHEMBL1201862, “PubChem BioAssay data set” (2004).
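Exposure lasted 48 hours, with cells grown in 96-well plates and compounds tested at five concentrations. Abbreviation: GI50, concentration required for 50% inhibition of growth.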 Active and inactive are the calls of the source. Cut-off read from the data, not from the text of the source: active = GI50 up to about 1.1 µM and inactive = higher.

How the values were obtained:
Test in all cases: NCI tumour cell line growth inhibition, 48 h
786-0 = tested on: 786-0
MDA-MB-435 = tested on: MDA-MB-435
HCT-15 = tested on: HCT-15
COLO 205 = tested on: COLO 205
RXF 393 = tested on: RXF 393
SNB-19 = tested on: SNB-19
SK-MEL-28 = tested on: SK-MEL-28
DLD-1 = tested on: DLD-1
SW-620 = tested on: SW-620
KM-20L2 = tested on: KM-20L2
NCI-H23 = tested on: NCI-H23
HCC 2998 = tested on: HCC 2998
NCI-H226 = tested on: NCI-H226
K562 = tested on: K562
SK-MEL-2 = tested on: SK-MEL-2
UACC-62 = tested on: UACC-62
MDA-MB-231 = tested on: MDA-MB-231
Hs-578T = tested on: Hs-578T
A498 = tested on: A498
OVCAR-8 = tested on: OVCAR-8
KM12 = tested on: KM12
SK-OV-3 = tested on: SK-OV-3
BT-549 = tested on: BT-549
HOP-18 = tested on: HOP-18
DMS-273 = tested on: DMS-273
IGROV-1 = tested on: IGROV-1
M14 = tested on: M14
DU-145 = tested on: DU-145
OVCAR-5 = tested on: OVCAR-5
HL-60 = tested on: HL-60
A549 = tested on: A549
SF-268 = tested on: SF-268
HT-29 = tested on: HT-29
UO-31 = tested on: UO-31
PC-3 = tested on: PC-3
SF-539 = tested on: SF-539
SNB-75 = tested on: SNB-75
NCI/ADR-RES = tested on: NCI/ADR-RES
OVCAR-3 = tested on: OVCAR-3
UACC-257 = tested on: UACC-257
MDA-N = tested on: MDA-N
DMS-114 = tested on: DMS-114
SK-MEL-5 = tested on: SK-MEL-5
T47D = tested on: T47D
SF-295 = tested on: SF-295
OVCAR-4 = tested on: OVCAR-4
RPMI-8226 = tested on: RPMI-8226
SR = tested on: SR
HOP-62 = tested on: HOP-62
U-251 = tested on: U-251
MOLT-4 = tested on: MOLT-4
SN12C = tested on: SN12C
ACHN = tested on: ACHN
NCI-H522 = tested on: NCI-H522
CCRF-CEM = tested on: CCRF-CEM
CAKI-1 = tested on: CAKI-1
EKVX = tested on: EKVX
TK-10 = tested on: TK-10
NCI-H460 = tested on: NCI-H460
MCF7 = tested on: MCF7
Malme-3M = tested on: Malme-3M

For O=CC(NC(=O)N(CCCl)N=O)C(O)C(O)C(O)CO (stereo unspecified), the GI50 (786-0) was 56.6 µM (inactive), the GI50 (MDA-MB-435) was 774 µM (inactive) and the GI50 (HCT-15) was 1190 µM. The GI50 (COLO 205) was > 1250 µM (inactive), the GI50 (RXF 393) was 1150 µM (inactive) and the GI50 (SNB-19) was 312 µM (inactive). The GI50 (SK-MEL-28) was 817 µM (inactive), the GI50 (DLD-1) was > 1250 µM (inactive) and the GI50 (SW-620) was 832 µM (inactive). The GI50 (KM-20L2) was > 1250 µM (inactive), the GI50 (NCI-H23) was 993 µM (inactive) and the GI50 (HCC 2998) was > 1030 µM (inactive). For the same compound, the GI50 (NCI-H226) was 1240 µM (inactive), the GI50 (K562) was 575 µM (inactive) and the GI50 (SK-MEL-2) was 718 µM (inactive). For the same compound, the GI50 (UACC-62) was 47 µM (inactive), the GI50 (MDA-MB-231) was > 1100 µM (inactive) and the GI50 (Hs-578T) was > 955 µM (inactive). The GI50 (A498) was 1120 µM (inactive), the GI50 (OVCAR-8) was 1160 µM (inactive) and the GI50 (KM12) was > 1250 µM (inactive). The GI50 (SK-OV-3) was > 1160 µM (inactive), the GI50 (BT-549) was 499 µM (inactive) and the GI50 (HOP-18) was > 1250 µM (inactive). For the same compound, the GI50 (DMS-273) was 1000 µM (inactive), the GI50 (IGROV-1) was 1000 µM (inactive) and the GI50 (M14) was 748 µM (inactive). The GI50 (DU-145) was 553 µM (inactive), the GI50 (OVCAR-5) was 1140 µM (inactive) and the GI50 (HL-60) was 287 µM (inactive). The GI50 (A549) was 753 µM (inactive), the GI50 (SF-268) was 114 µM (inactive) and the GI50 (HT-29) was > 1250 µM (inactive). For the same compound, the GI50 (UO-31) was > 1200 µM (inactive), the GI50 (PC-3) was > 1250 µM (inactive) and the GI50 (SF-539) was 119 µM (inactive). The GI50 (SNB-75) was 262 µM (inactive), the GI50 (NCI/ADR-RES) was 953 µM (inactive) and the GI50 (OVCAR-3) was > 1250 µM (inactive). The GI50 (UACC-257) was 1050 µM (inactive), the GI50 (MDA-N) was 312 µM (inactive) and the GI50 (DMS-114) was 1040 µM (inactive). The GI50 (SK-MEL-5) was 425 µM (inactive), the GI50 (T47D) was 679 µM (inactive) and the GI50 (SF-295) was 81.7 µM (inactive). For the same compound, the GI50 (OVCAR-4) was > 449 µM (inactive), the GI50 (RPMI-8226) was 851 µM (inactive) and the GI50 (SR) was 78.7 µM (inactive). The GI50 (HOP-62) was 136 µM (inactive), the GI50 (U-251) was 179 µM (inactive) and the GI50 (MOLT-4) was 159 µM (inactive). The GI50 (SN12C) was 902 µM (inactive), the GI50 (ACHN) was 346 µM (inactive) and the GI50 (NCI-H522) was 1160 µM (inactive). The GI50 (CCRF-CEM) was 348 µM (inactive), the GI50 (CAKI-1) was 798 µM (inactive) and the GI50 (EKVX) was > 1250 µM (inactive). The GI50 (TK-10) was > 1250 µM (inactive), the GI50 (NCI-H460) was 272 µM (inactive) and the GI50 (MCF7) was 948 µM (inactive). For the same compound, the GI50 (Malme-3M) was 347 µM (inactive).
